Assays:
PRMT5 [1] = target: T1, PRMT5 (Homo sapiens, UniProt O14744); assay: PRMT5 IC50 assay in the presence of SAM as cofactor; assay type: biochemical
T1 construct: purchased Viva (custom protein)
Summary of the method: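 MTA-dependent versus SAM-dependent inhibition of human PRMT5 was assessed by IC50; conversion factors of 13.5 and 1.5 gave the corresponding Ki.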

PRMT5 [2] = target: T1, PRMT5; assay: PRMT5 IC50 assay with no cofactor; assay type: biochemical
Summary of the method: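 IC50 against PRMT5 determined with SAM as cofactor, with no cofactor, and with MTA as cofactor. Ki derived as IC50/1.5 for the SAM assay and IC50/13.5 for the MTA assay; SAM Ki to MTA Ki ratio also reported.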

PRMT5 [3] = target: T1, PRMT5; assay: PRMT5 IC50 assay in the presence of MTA as cofactor; assay type: biochemical; settings: for IC50: PRMT5, MTA as cofactor; for SAM/MTA Ratio: ratio between the Ki in the presence of SAM and the Ki in the presence of MTA
Summary of the method: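 Ki conversion: SAM arm, Ki=IC50/1.5; MTA arm, Ki=IC50/13.5. No-cofactor arm reported as IC50 only. Selectivity expressed as Ki(SAM)/Ki(MTA).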

HAP1 MTAP-intact = assay: SDMA in-cell western assay, HAP1 MTAP-intact cell line; assay type: cell-based; settings: Homo sapiens
Summary of the method: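 Symmetric dimethylarginine (SDMA) levels were measured by in-cell western in an isogenic HAP1 pair, one expressing endogenous MTAP and one MTAP-null, and IC50 values were derived for each line. Compounds whose IC50 ratio between the lines is 3-fold or more are classed as MTAP-selective.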

HAP1 MTAP-deleted = assay: SDMA in-cell western assay, HAP1 MTAP-deleted cell line; assay type: cell-based; settings: for IC50: Homo sapiens, HAP1 MTAP-deleted cell line; for MTAP Intact/Deleted Ratio: IC50 ratio HAP1 MTAP-intact / HAP1 MTAP-deleted
Summary of the method: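 Symmetric dimethylarginine (SDMA) levels were measured by in-cell western in MTAP-null HAP1 cells, one half of an MTAP-isogenic pair whose partner line expresses endogenous MTAP. Compound potency is reported as IC50.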

T1 sequence (O14744 whole entry): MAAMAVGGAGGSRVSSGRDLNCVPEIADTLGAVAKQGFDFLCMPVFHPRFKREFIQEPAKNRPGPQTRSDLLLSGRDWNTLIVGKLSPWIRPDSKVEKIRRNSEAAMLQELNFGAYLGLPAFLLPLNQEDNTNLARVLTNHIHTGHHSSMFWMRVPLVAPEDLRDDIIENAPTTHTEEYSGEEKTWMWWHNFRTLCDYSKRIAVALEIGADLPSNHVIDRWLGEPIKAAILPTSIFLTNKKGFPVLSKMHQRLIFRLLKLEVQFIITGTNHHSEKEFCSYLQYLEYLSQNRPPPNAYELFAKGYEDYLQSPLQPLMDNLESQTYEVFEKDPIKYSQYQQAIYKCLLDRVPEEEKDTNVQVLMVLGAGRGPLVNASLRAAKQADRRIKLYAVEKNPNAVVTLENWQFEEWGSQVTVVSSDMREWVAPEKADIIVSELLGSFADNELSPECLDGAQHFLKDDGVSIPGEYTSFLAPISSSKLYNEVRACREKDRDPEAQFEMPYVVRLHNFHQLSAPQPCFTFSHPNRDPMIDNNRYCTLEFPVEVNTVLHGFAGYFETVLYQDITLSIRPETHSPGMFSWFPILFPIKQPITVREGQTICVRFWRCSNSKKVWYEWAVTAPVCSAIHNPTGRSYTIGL
T1 sequence (Q9BQA1 whole entry partner): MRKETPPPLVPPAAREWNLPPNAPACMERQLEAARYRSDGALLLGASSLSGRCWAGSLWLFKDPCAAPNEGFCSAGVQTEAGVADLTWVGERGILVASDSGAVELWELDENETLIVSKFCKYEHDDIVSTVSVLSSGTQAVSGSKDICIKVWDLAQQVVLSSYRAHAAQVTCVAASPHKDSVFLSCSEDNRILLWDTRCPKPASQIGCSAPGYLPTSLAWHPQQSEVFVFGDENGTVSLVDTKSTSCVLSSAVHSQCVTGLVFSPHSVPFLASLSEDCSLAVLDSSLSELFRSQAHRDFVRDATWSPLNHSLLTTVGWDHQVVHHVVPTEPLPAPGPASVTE

Structure (SMILES) | IC50 (PRMT5 [1]) | IC50 (PRMT5 [2]) | IC50 (PRMT5 [3]) | IC50 (HAP1 MTAP-intact) | IC50 (HAP1 MTAP-deleted) | SAM/MTA Ratio (PRMT5 [3]) | MTAP Intact/Deleted Ratio (HAP1 MTAP-deleted)
Cc1c(OCc2cnco2)ccc2c1CCN(C[C@@H](O)CNC(=O)c1cc(NC3CCN(C(=O)C4CCC4)CC3)ncn1)C2 [Compound 536, 6-[(1-cyclobutanecarbonylpiperidin-4-yl)amino]-N-[(2S)-2-hydroxy-3-{5-methyl-6-[(1,3-oxazol-5-yl)methoxy]-1,2,3,4-tetrahydroisoquinolin-2-yl}propyl]pyrimidine-4-carboxamide] | 50 to 500 nM | 500 to 5000 nM | 50 to 500 nM | ≥ 10000 nM | 1000 to 10000 nM | A (a Ki ratio greater than or equal to 10 fold between the Ki in the presence of SAM and the Ki in the presence of MTA) | B* (an IC50 ratio greater than or equal to 3 fold but lower than 10 fold between the IC50 in the HAP1 MTAP-intact cell line and the HAP1 MTAP-deleted cell line)
Cc1ncoc1COc1ccc2c(c1C)CCN(C[C@@H](O)CNC(=O)c1cc(NC3CCC3)nc(N3CCN(C(C)C)CC3)c1)C2 [Compound 539, 2-(cyclobutylamino)-N-[(2S)-2-hydroxy-3-{5-methyl-6-[(4-methyl-1,3-oxazol-5-yl)methoxy]-1,2,3,4-tetrahydroisoquinolin-2-yl}propyl]-6-[4-(propan-2-yl)piperazin-1-yl]pyridine-4-carboxamide] | 50 to 500 nM | 500 to 5000 nM | 50 to 500 nM | ≥ 10000 nM | ≥ 10000 nM | A (a Ki ratio greater than or equal to 10 fold between the Ki in the presence of SAM and the Ki in the presence of MTA) | C* (an IC50 ratio of less than 3 fold between the IC50 in the HAP1 MTAP-intact cell line and the HAP1 MTAP-deleted cell line)
COc1ccc(C(=O)N2CCc3cc(C(=O)NC[C@H](O)CN4CCc5c(ccc(OCc6cnco6)c5C)C4)ccc3C2)cc1 [Compound 540, N-[(2S)-2-hydroxy-3-{5-methyl-6-[(1,3-oxazol-5-yl)methoxy]-1,2,3,4-tetrahydroisoquinolin-2-yl}propyl]-2-(4-methoxybenzoyl)-1,2,3,4-tetrahydroisoquinoline-6-carboxamide] | 50 to 500 nM | 500 to 5000 nM | 50 to 500 nM | ≥ 10000 nM | 1000 to 10000 nM | A (a Ki ratio greater than or equal to 10 fold between the Ki in the presence of SAM and the Ki in the presence of MTA) | C* (an IC50 ratio of less than 3 fold between the IC50 in the HAP1 MTAP-intact cell line and the HAP1 MTAP-deleted cell line)
CCN1CCN(c2nc(NC3COC3)cc(C(=O)NC[C@H](O)CN3CCc4cc(OCc5ocnc5C)ccc4C3)n2)CC1 [Compound 544, 2-(4-ethylpiperazin-1-yl)-N-[(2S)-2-hydroxy-3-(6-[(4-methyl-1,3-oxazol-5-yl)methoxy]-1,2,3,4-tetrahydroisoquinolin-2-yl}propyl]-6-[(oxetan-3-yl)amino]pyrimidine-4-carboxamide] | 50 to 500 nM | 500 to 5000 nM | 50 to 500 nM | 1000 to 10000 nM | 1000 to 10000 nM | A (a Ki ratio greater than or equal to 10 fold between the Ki in the presence of SAM and the Ki in the presence of MTA) | B* (an IC50 ratio greater than or equal to 3 fold but lower than 10 fold between the IC50 in the HAP1 MTAP-intact cell line and the HAP1 MTAP-deleted cell line)
CC(=O)N1CCN(c2cc(C(=O)NC[C@H](O)CN3CCc4c(ccc(OCc5cnco5)c4Cl)C3)cc(NC3CCC3)n2)CC1 [Compound 545, (S)-2-(4-acetylpiperazin-1-yl)-N-(3-(5-chloro-6-(oxazol-5-ylmethoxy)-3,4-dihydroisoquinolin-2(1H)-yl)-2-hydroxypropyl)-6-(cyclobutylamino)isonicotinamide] | 50 to 500 nM | 500 to 5000 nM | 50 to 500 nM | ≥ 10000 nM | 1000 to 10000 nM | A (a Ki ratio greater than or equal to 10 fold between the Ki in the presence of SAM and the Ki in the presence of MTA) | B* (an IC50 ratio greater than or equal to 3 fold but lower than 10 fold between the IC50 in the HAP1 MTAP-intact cell line and the HAP1 MTAP-deleted cell line)
Cc1c(OCc2cnco2)ccc2c1CCN(C[C@@H](O)CNC(=O)c1ccc3c(c1)CCN(C(=O)c1ccc(Br)cc1)C3)C2 [Compound 546] | 50 to 500 nM | 500 to 5000 nM | 50 to 500 nM | ≥ 10000 nM | ≥ 10000 nM |  | C* (an IC50 ratio of less than 3 fold between the IC50 in the HAP1 MTAP-intact cell line and the HAP1 MTAP-deleted cell line)
COc1ccc(C(=O)N2CCc3cc(C(=O)NC[C@H](O)CN4CCc5cc(OCc6cnco6)ccc5C4)ccc3C2)cc1 [Compound 547, (S)—N-(2-hydroxy-3-(6-(oxazol-5-ylmethoxy)-3,4-dihydroisoquinolin-2(1H)-yl)propyl)-2-(4-methoxybenzoyl)-1,2,3,4-tetrahydroisoquinoline-6-carboxamide] | 50 to 500 nM | 500 to 5000 nM | 50 to 500 nM | 1000 to 10000 nM | 1000 to 10000 nM | A (a Ki ratio greater than or equal to 10 fold between the Ki in the presence of SAM and the Ki in the presence of MTA) | C* (an IC50 ratio of less than 3 fold between the IC50 in the HAP1 MTAP-intact cell line and the HAP1 MTAP-deleted cell line)

Second part, led by results:

IC50 (PRMT5 [1]) | IC50 (PRMT5 [2]) | IC50 (PRMT5 [3]) | IC50 (HAP1 MTAP-intact) | IC50 (HAP1 MTAP-deleted) | Structure (SMILES) | SAM/MTA Ratio (PRMT5 [3]) | MTAP Intact/Deleted Ratio (HAP1 MTAP-deleted)
50 to 500 nM | 500 to 5000 nM | 50 to 500 nM | ≥ 10000 nM | 1000 to 10000 nM | Cc1c(OCc2cnco2)ccc2c1CCN(C[C@@H](O)CNC(=O)c1cc(NC3CCN(C(=O)CC(C)C)CC3)ncn1)C2 [Compound 528] | A (a Ki ratio greater than or equal to 10 fold between the Ki in the presence of SAM and the Ki in the presence of MTA) | C* (an IC50 ratio of less than 3 fold between the IC50 in the HAP1 MTAP-intact cell line and the HAP1 MTAP-deleted cell line)
50 to 500 nM | 500 to 5000 nM | 50 to 500 nM | ≥ 10000 nM | 1000 to 10000 nM | CC(=O)N1CCC(Nc2cccc(C(=O)NC[C@H](O)CN3CCc4c(ccc(OCc5cnco5)c4C)C3)c2)CC1 [Compound 529, 3-[(1-acetylpiperidin-4-yl)amino]-N-[(2S)-2-hydroxy-3-{5-methyl-6-[(1,3-oxazol-5-yl)methoxy]-1,2,3,4-tetrahydroisoquinolin-2-yl}propyl]benzamide] | A (a Ki ratio greater than or equal to 10 fold between the Ki in the presence of SAM and the Ki in the presence of MTA) | B* (an IC50 ratio greater than or equal to 3 fold but lower than 10 fold between the IC50 in the HAP1 MTAP-intact cell line and the HAP1 MTAP-deleted cell line)
50 to 500 nM | ≥ 5000 nM | 50 to 500 nM | ≥ 10000 nM | ≥ 10000 nM | Cc1ncoc1COc1ccc2c(c1C)CCN(C[C@@H](O)CNC(=O)c1ccc3c(c1)CCN(C(=O)c1ccc(Br)cc1)C3)C2 [Compound 530] | A (a Ki ratio greater than or equal to 10 fold between the Ki in the presence of SAM and the Ki in the presence of MTA) | C* (an IC50 ratio of less than 3 fold between the IC50 in the HAP1 MTAP-intact cell line and the HAP1 MTAP-deleted cell line)
50 to 500 nM | 500 to 5000 nM | 50 to 500 nM | ≥ 10000 nM | < 1000 nM | CC(=O)N1CC(Nc2cc(C(=O)NC[C@H](O)CN3CCc4c(ccc(OCc5cnco5)c4Cl)C3)nc(N3CCCCC3)n2)C1 [Compound 532] | A (a Ki ratio greater than or equal to 10 fold between the Ki in the presence of SAM and the Ki in the presence of MTA) | A* (an IC50 ratio greater than or equal to 10 fold between the IC50 in the HAP1 MTAP-intact cell line and the HAP1 MTAP-deleted cell line)
50 to 500 nM | ≥ 5000 nM | 50 to 500 nM | ≥ 10000 nM | 1000 to 10000 nM | COc1ccc(C(=O)N2CCc3cc(C(=O)NC[C@H](O)CN4CCc5c(ccc(OCc6ocnc6C)c5C)C4)ccc3C2)cc1 [Compound 533, N-[(2S)-2-hydroxy-3-{5-methyl-6-[(4-methyl-1,3-oxazol-5-yl)methoxy]-1,2,3,4-tetrahydroisoquinolin-2-yl}propyl]-2-(4-methoxybenzoyl)-1,2,3,4-tetrahydroisoquinoline-6-carboxamide] | A (a Ki ratio greater than or equal to 10 fold between the Ki in the presence of SAM and the Ki in the presence of MTA) | C* (an IC50 ratio of less than 3 fold between the IC50 in the HAP1 MTAP-intact cell line and the HAP1 MTAP-deleted cell line)
50 to 500 nM | 500 to 5000 nM | < 50 nM | 1000 to 10000 nM | < 1000 nM | CC(=O)N1CC(Nc2cc(C(=O)NC[C@H](O)CN3CCc4cc(OCc5ocnc5C)ccc4C3)nc(N3CCCCC3)n2)C1 [Compound 534, 6-[(1-acetylazetidin-3-yl)amino]-N-[(2S)-2-hydroxy-3-{6-[(4-methyl-1,3-oxazol-5-yl)methoxy]-1,2,3,4-tetrahydroisoquinolin-2-yl}propyl]-2-(piperidin-1-yl)pyrimidine-4-carboxamide] | A (a Ki ratio greater than or equal to 10 fold between the Ki in the presence of SAM and the Ki in the presence of MTA) | A* (an IC50 ratio greater than or equal to 10 fold between the IC50 in the HAP1 MTAP-intact cell line and the HAP1 MTAP-deleted cell line)

Reference: US11986471B2, “Compounds and methods of use” (Tango Therapeutics, Inc., priority 2018, dated 2024)
